From US10047102B2, “Pyridyl-triazabicycles” (Hoffmann-La Roche Inc., priority 2014, dated 2018)

Target: T1, BACE1 (Homo sapiens, UniProt P56817)
T1 construct: endogenous in cells; host or cells: HEK293 APP cells
Assay: Cellular Aβ-lowering assay (Abeta 40 AlphaLISA, HEK293 APP cells)
Format: cell-based
Conditions: Aβ 40 in culture supernatant by AlphaLISA, 18-20 hrs incubation at 37° C., 1% DMSO
Description: The compounds were investigated in accordance with the test given hereinafter.
The Abeta 40 AlphaLISA Assay can be used. The HEK293 APP cells were seeded in 96 well Microtiter plates in cell culture medium (Iscove's, plus 10% (v/v) fetal bovine serum, penicillin/streptomycin) to about 80% confluency and the compounds were added at a 3× concentration in ⅓ volume of culture medium (final DMSO concentration was kept at 1% v/v). After 18-20 hrs incubation at 37° C. and 5% CO2 in a humidified incubator, the culture supernatants were harvested for the determination of Aβ 40 concentrations using Perkin-Elmer Human Amyloid beta 1-40 (high specificity) Kit (Cat# AL275C).
In a Perkin-Elmer White Optiplate-384 (Cat# 6007290), 2 ul culture supernatants were combined with 2 μl of a 10× AlphaLISA Anti-hAβAcceptor beads+Biotinylated Antibody Anti-Aβ 1-40 Mix (50 μg/mL/5 nM). After 1 hour room temperature incubation, 16 μl of a 1.25× preparation of Streptavidin (SA) Donor beads (25 μg/mL) were added and incubated for 30 minutes in the Dark. Light Emission at 615 nm was then recorded using EnVision-Alpha Reader. Levels of Aβ 40 in the culture supernatants were calculated as percentage of maximum signal (cells treated with 1% DMSO without inhibitor). The IC50 values were calculated using the Excel XLfit software.

T1 sequence (P56817 46-501): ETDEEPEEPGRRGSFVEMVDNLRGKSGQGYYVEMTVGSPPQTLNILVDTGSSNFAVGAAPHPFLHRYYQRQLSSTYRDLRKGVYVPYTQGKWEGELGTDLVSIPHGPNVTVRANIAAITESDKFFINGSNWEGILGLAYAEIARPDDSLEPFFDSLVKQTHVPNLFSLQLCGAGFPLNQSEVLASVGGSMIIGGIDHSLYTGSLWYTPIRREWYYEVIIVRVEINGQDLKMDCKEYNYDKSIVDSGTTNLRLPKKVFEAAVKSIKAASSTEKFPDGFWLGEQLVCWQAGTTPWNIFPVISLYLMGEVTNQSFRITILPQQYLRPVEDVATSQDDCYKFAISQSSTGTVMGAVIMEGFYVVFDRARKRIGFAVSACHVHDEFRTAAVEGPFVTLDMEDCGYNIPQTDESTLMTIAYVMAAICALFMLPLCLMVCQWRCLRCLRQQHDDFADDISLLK

| IC50 | SMILES |
| --- | --- |
| 78 nM | N#Cc1ccc(C(=O)Nc2ccc(F)c([C@]3(C(F)F)C[S@]4(=O)=NCCCCN4C(N)=N3)n2)nc1 [Example 6, N-[6-[(1S,10S)-8-Amino-10-(difluoromethyl)-1-oxo-1λ^6-thia-2,7,9-triazabicyclo[5.4.0]undeca-1,8-dien-10-yl]-5-fluoropyridin-2-yl]-5-cyanopyridine-2-carboxamide] |
| 147 nM | N#Cc1ccc(C(=O)Nc2ccc(F)c([C@]3(C(F)F)C[S@@]4(=O)=NCCCCN4C(N)=N3)n2)nc1 [Example 7, N-[6-[(1R,10S)-8-Amino-10-(difluoromethyl)-1-oxo-1λ^6-thia-2,7,9-triazabicyclo[5.4.0]undeca-1,8-dien-10-yl]-5-fluoropyridin-2-yl]-5-cyanopyridine-2-carboxamide] |
